Reference: patent US20250312499A1, “KISSPEPTIN RECEPTOR (KISS1R) TARGETED THERAPEUTICS AND USES THEREOF” (priority 2024, published 2025)
Numbered stars: 1 amine (or outer) side, 2 acyl side, 3 side chain; on linkers, the order of the positions; unused ones are H or OH. Square brackets hold non-standard residues; d marks the D form. Peptide text beside a SMILES is read from it. * marks the point of attachment. DOTA = O=C(O)CN1CCN(CC(=O)O)CCN(CC(=O)*)CCN(CC(=O)O)CC1; Gly(N-(3-F-4-Me-benzyl)) = Cc1ccc(CNCC(=O)*)cc1F; Api(1-amidino) = N=C(N)N1CCC(N)(C(=O)O)CC1; Hydrocinnamoyl(4-Me) = Cc1ccc(CCC(=O)*)cc1; d(γGlu) = O=C(O)[C@@H](CCC(=O)[*:2])N[*:1]; Hydrocinnamoyl(4-I) = O=C(CCc1ccc(I)cc1)*; Phe(4-CN) = N#Cc1ccc(C[C@H](N)C(=O)O)cc1; X3 = CNC(=N)N1CCC(N[*:1])(C(=O)[*:2])CC1; d2Nal = N[C@H](Cc1ccc2ccccc2c1)C(=O)O; Palmitoyl = CCCCCCCCCCCCCCCC(=O)*; Hyp = O=C(O)[C@@H]1C[C@@H](O)CN1; d4Pal = N[C@H](Cc1ccncc1)C(=O)O; Cha = N[C@@H](CC1CCCCC1)C(=O)O; Lauroyl = CCCCCCCCCCCC(=O)*; Api = NC1(C(=O)O)CCNCC1; PEG2 = NCCOCCOCCC(=O)O; Ahx = NCCCCCC(=O)O; azaGly = NNC(=O)O

Molecular target: human kisspeptin receptor (Homo sapiens (Human), UniProt Q969F8)
Assay: Human KISS1R binding assay (membrane competition binding)
Conditions: 90 min at room temperature; competition with 0.2 nM [125I]-metastin (45-54); Flp-In T-Rex 293 kisspeptin membranes; metal complexes nonradioactive Ga, In, Lu; read-out: hKiSSR Binding Ki (90 min)
Outline: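 Membranes from tetracycline-induced (48 h) Flp-In T-Rex 293 cells expressing receptor, 5–10 μg, incubated 90 min at room temperature with 0.2 nM [125I]-metastin (45-54) and competitor (typically 0–10,000 nM) in Tris/Mg/Ca/EGTA/0.1% BSA, pH 7.4. Filtration, washing, counting; Ki by non-linear regression.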

Chain of human kisspeptin receptor (Q969F8 whole entry): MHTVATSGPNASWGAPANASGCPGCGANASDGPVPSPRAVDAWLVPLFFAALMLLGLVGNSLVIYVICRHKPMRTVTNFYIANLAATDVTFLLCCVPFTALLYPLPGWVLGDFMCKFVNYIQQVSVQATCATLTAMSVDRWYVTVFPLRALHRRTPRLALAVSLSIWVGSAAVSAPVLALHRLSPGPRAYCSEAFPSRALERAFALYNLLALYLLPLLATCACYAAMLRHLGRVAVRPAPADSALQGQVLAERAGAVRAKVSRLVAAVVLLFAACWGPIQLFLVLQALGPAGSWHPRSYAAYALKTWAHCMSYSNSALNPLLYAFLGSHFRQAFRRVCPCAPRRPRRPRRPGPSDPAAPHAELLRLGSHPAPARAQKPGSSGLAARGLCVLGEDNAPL

Row | Compound | Ki
1 | Cc1ccc(CNCC(=O)N2CCC(NC(=O)[C@H](CC(C)C)NC(=O)NNC(=O)[C@H](CC3CCCCC3)NC(=O)[C@@H](NC(=O)[C@H](CC(N)=O)NC(=O)[C@@H](Cc3ccc4ccccc4c3)NC(=O)[C@@H](Cc3ccc(O)cc3)NC(=O)CN3CCN(CC(=O)O)CCN(CC(=O)O)CCN(CC(=O)O)CC3)[C@@H](C)O)(C(=O)N[C@@H](Cc3c[nH]c4ccccc34)C(N)=O)CC2)cc1F [Compound 318] ({DOTA}-[dY][d2Nal]NT[Cha][azaGly]L[Api](Gly(N-(3-F-4-Me-benzyl)))W-NH2) | < 10 nM
2 | CNC(=N)N1CCC(NC(=O)[C@H](CC(C)C)NC(=O)NNC(=O)[C@H](Cc2ccccc2)NC(=O)[C@@H](NC(=O)[C@H](CC(N)=O)NC(=O)[C@@H](Cc2ccc3ccccc3c2)NC(=O)[C@@H](Cc2ccc(O)cc2)NC(=O)CCCCCNC(=O)CN2CCN(CC(=O)O)CCN(CC(=O)O)CCN(CC(=O)O)CC2)[C@@H](C)O)(C(=O)N[C@H](Cc2c[nH]c3ccccc23)C(N)=O)CC1 [Compound 319] ({DOTA-Ahx}-[dY][d2Nal]NTF[azaGly]L[X3][dW]-NH2) | > 100 nM
3 | CC(C)C[C@H](NC(=O)NNC(=O)[C@H](Cc1ccccc1)NC(=O)[C@@H](NC(=O)[C@H](CC(N)=O)NC(=O)[C@H](CCCCNC(=O)CN1CCN(CC(=O)O)CCN(CC(=O)O)CCN(CC(=O)O)CC1)NC(=O)[C@@H](Cc1ccc(O)cc1)NC(=O)CC[C@@H](NC(=O)CCc1ccc(I)cc1)C(=O)O)[C@@H](C)O)C(=O)NC1(C(=O)N[C@@H](Cc2c[nH]c3ccccc23)C(N)=O)CCN(C(=N)N)CC1 [Compound 320] ({Hydrocinnamoyl(4-I)-d(γGlu)}-[dY]K(DOTA)NTF[azaGly]L[Api(1-amidino)]W-NH2) | < 10 nM
4 | CC(C)C[C@H](NC(=O)NNC(=O)[C@H](Cc1ccccc1)NC(=O)[C@@H](NC(=O)[C@H](CC(N)=O)NC(=O)[C@H](CCCCNC(=O)CN1CCN(CC(=O)O)CCN(CC(=O)O)CCN(CC(=O)O)CC1)NC(=O)[C@@H](Cc1ccc(O)cc1)NC(=O)CCc1ccc(I)cc1)[C@@H](C)O)C(=O)NC1(C(=O)N[C@@H](Cc2c[nH]c3ccccc23)C(N)=O)CCN(C(=N)N)CC1 [Compound 321] ({Hydrocinnamoyl(4-I)}-[dY]K(DOTA)NTF[azaGly]L[Api(1-amidino)]W-NH2) | < 10 nM
5 | Cc1ccc(CCC(=O)NCCOCCOCCC(=O)N[C@H](Cc2ccc(O)cc2)C(=O)N[C@@H](CCCCNC(=O)CN2CCN(CC(=O)O)CCN(CC(=O)O)CCN(CC(=O)O)CC2)C(=O)N[C@@H](CC(N)=O)C(=O)N[C@H](C(=O)N[C@@H](Cc2ccccc2)C(=O)NNC(=O)N[C@@H](CC(C)C)C(=O)NC2(C(=O)N[C@@H](Cc3ccccc3)C(N)=O)CCN(C(=N)N)CC2)[C@@H](C)O)cc1 [Compound 322] ({Hydrocinnamoyl(4-Me)-PEG2}-[dY]K(DOTA)NTF[azaGly]L[Api(1-amidino)]F-NH2) | < 10 nM
6 | CC(C)C[C@H](NC(=O)NNC(=O)[C@H](Cc1ccccc1)NC(=O)[C@@H](NC(=O)[C@H](CC(N)=O)NC(=O)[C@H](CCCCNC(=O)CN1CCN(CC(=O)O)CCN(CC(=O)O)CCN(CC(=O)O)CC1)NC(=O)[C@@H](Cc1ccc(O)cc1)NC(=O)CCOCCOCCNC(=O)CCc1ccc(I)cc1)[C@@H](C)O)C(=O)NC1(C(=O)N[C@@H](Cc2ccccc2)C(N)=O)CCN(C(=N)N)CC1 [Compound 323] ({Hydrocinnamoyl(4-I)-PEG2}-[dY]K(DOTA)NTF[azaGly]L[Api(1-amidino)]F-NH2) | < 10 nM
7 | CC(C)C[C@H](NC(=O)NNC(=O)[C@H](Cc1ccccc1)NC(=O)[C@@H](NC(=O)[C@H](CC(N)=O)NC(=O)[C@H](CCCCNC(=O)CN1CCN(CC(=O)O)CCN(CC(=O)O)CCN(CC(=O)O)CC1)NC(=O)[C@@H](Cc1ccc(O)cc1)NC(=O)CCOCCOCCNC(=O)CCc1ccc(I)cc1)[C@@H](C)O)C(=O)NC1(C(=O)N[C@@H](Cc2ccc(O)cc2)C(N)=O)CCN(C(=N)N)CC1 [Compound 324] ({Hydrocinnamoyl(4-I)-PEG2}-[dY]K(DOTA)NTF[azaGly]L[Api(1-amidino)]Y-NH2) | < 10 nM
8 | CC(C)C[C@H](NC(=O)NNC(=O)[C@H](Cc1ccccc1)NC(=O)[C@@H](NC(=O)[C@H](CC(N)=O)NC(=O)[C@H](CCCCNC(=O)CN1CCN(CC(=O)O)CCN(CC(=O)O)CCN(CC(=O)O)CC1)NC(=O)[C@@H](Cc1ccc(O)cc1)NC(=O)CCOCCOCCNC(=O)CCc1ccc(I)cc1)[C@@H](C)O)C(=O)NC1(C(=O)N[C@@H](Cc2ccc(C#N)cc2)C(N)=O)CCN(C(=N)N)CC1 [Compound 325] ({Hydrocinnamoyl(4-I)-PEG2}-[dY]K(DOTA)NTF[azaGly]L[Api(1-amidino)][Phe(4-CN)]-NH2) | < 10 nM
9 | Cc1ccc(CCC(=O)NCCOCCOCCC(=O)N[C@H](Cc2ccc(O)cc2)C(=O)N[C@@H](CCCCNC(=O)CN2CCN(CC(=O)O)CCN(CC(=O)O)CCN(CC(=O)O)CC2)C(=O)N[C@@H](CC(N)=O)C(=O)N[C@H](C(=O)N[C@@H](CC2CCCCC2)C(=O)NNC(=O)N[C@@H](CC(C)C)C(=O)NC2(C(=O)N[C@@H](Cc3c[nH]c4ccccc34)C(N)=O)CCN(C(=N)N)CC2)[C@@H](C)O)cc1 [Compound 326] ({Hydrocinnamoyl(4-Me)-PEG2}-[dY]K(DOTA)NT[Cha][azaGly]L[Api(1-amidino)]W-NH2) | < 10 nM
10 | CC(C)C[C@H](NC(=O)NNC(=O)[C@H](CC1CCCCC1)NC(=O)[C@@H](NC(=O)[C@H](CC(N)=O)NC(=O)[C@H](CCCCNC(=O)CN1CCN(CC(=O)O)CCN(CC(=O)O)CCN(CC(=O)O)CC1)NC(=O)[C@@H](Cc1ccc(O)cc1)NC(=O)CCOCCOCCNC(=O)CCc1ccc(I)cc1)[C@@H](C)O)C(=O)NC1(C(=O)N[C@@H](Cc2c[nH]c3ccccc23)C(N)=O)CCN(C(=N)N)CC1 [Compound 327] ({Hydrocinnamoyl(4-I)-PEG2}-[dY]K(DOTA)NT[Cha][azaGly]L[Api(1-amidino)]W-NH2) | < 10 nM
11 | CCCCCCCCCCCCCCCC(=O)N[C@H](Cc1ccc(O)cc1)C(=O)N[C@@H](CCCCNC(=O)CN1CCN(CC(=O)O)CCN(CC(=O)O)CCN(CC(=O)O)CC1)C(=O)N[C@@H](CC(N)=O)C(=O)N[C@H](C(=O)N[C@@H](Cc1ccccc1)C(=O)NNC(=O)N[C@@H](CC(C)C)C(=O)NC1(C(=O)N[C@@H](Cc2c[nH]c3ccccc23)C(N)=O)CCN(C(=N)N)CC1)[C@@H](C)O [Compound 328] (Palmitoyl-[dY]K(DOTA)NTF[azaGly]L[Api(1-amidino)]W-NH2) | < 10 nM
12 | CCCCCCCCCCCC(=O)N[C@H](Cc1ccc(O)cc1)C(=O)N[C@@H](CCCCNC(=O)CN1CCN(CC(=O)O)CCN(CC(=O)O)CCN(CC(=O)O)CC1)C(=O)N[C@@H](CC(N)=O)C(=O)N[C@H](C(=O)N[C@@H](Cc1ccccc1)C(=O)NNC(=O)N[C@@H](CC(C)C)C(=O)NC1(C(=O)N[C@@H](Cc2c[nH]c3ccccc23)C(N)=O)CCN(C(=N)N)CC1)[C@@H](C)O [Compound 329] (Lauroyl-[dY]K(DOTA)NTF[azaGly]L[Api(1-amidino)]W-NH2) | < 10 nM

More lines, now with the values ahead:

Row | Ki | Compound
13 | < 10 nM | CC(C)C[C@H](NC(=O)NNC(=O)[C@H](Cc1ccccc1)NC(=O)[C@@H](NC(=O)[C@H](CC(N)=O)NC(=O)[C@@H]1C[C@@H](O)CN1C(=O)[C@@H](Cc1ccc(O)cc1)NC(=O)CCCCCNC(=O)CN1CCN(CC(=O)O)CCN(CC(=O)O)CCN(CC(=O)O)CC1)[C@@H](C)O)C(=O)NC1(C(=O)N[C@@H](Cc2c[nH]c3ccccc23)C(N)=O)CCN(C(=N)N)CC1 [Compound 311] ({DOTA-Ahx}-[dY][Hyp]NTF[azaGly]L[Api(1-amidino)]W-NH2)
14 | < 10 nM | Cc1ccc(CNCC(=O)N2CCC(NC(=O)[C@H](CC(C)C)NC(=O)NNC(=O)[C@H](CC3CCCCC3)NC(=O)[C@@H](NC(=O)[C@H](CC(N)=O)NC(=O)CCCCCNC(=O)CN3CCN(CC(=O)O)CCN(CC(=O)O)CCN(CC(=O)O)CC3)[C@@H](C)O)(C(=O)N[C@@H](Cc3c[nH]c4ccccc34)C(N)=O)CC2)cc1F [Compound 313] ({DOTA-Ahx}-NT[Cha][azaGly]L[Api](Gly(N-(3-F-4-Me-benzyl)))W-NH2)
15 | < 10 nM | Cc1ccc(CNCC(=O)N2CCC(NC(=O)[C@H](CC(C)C)NC(=O)NNC(=O)[C@H](CC3CCCCC3)NC(=O)[C@@H](NC(=O)[C@H](CC(N)=O)NC(=O)[C@@H](Cc3ccncc3)NC(=O)CCCCCNC(=O)CN3CCN(CC(=O)O)CCN(CC(=O)O)CCN(CC(=O)O)CC3)[C@@H](C)O)(C(=O)N[C@@H](Cc3c[nH]c4ccccc34)C(N)=O)CC2)cc1F [Compound 314] ({DOTA-Ahx}-[d4Pal]NT[Cha][azaGly]L[Api](Gly(N-(3-F-4-Me-benzyl)))W-NH2)
16 | < 10 nM | Cc1ccc(CNCC(=O)N2CCC(NC(=O)[C@H](CC(C)C)NC(=O)NNC(=O)[C@H](CC3CCCCC3)NC(=O)[C@@H](NC(=O)[C@H](CC(N)=O)NC(=O)[C@@H](Cc3ccncc3)NC(=O)[C@@H](Cc3ccc(O)cc3)NC(=O)CN3CCN(CC(=O)O)CCN(CC(=O)O)CCN(CC(=O)O)CC3)[C@@H](C)O)(C(=O)N[C@@H](Cc3c[nH]c4ccccc34)C(N)=O)CC2)cc1F [Compound 315] ({DOTA}-[dY][d4Pal]NT[Cha][azaGly]L[Api](Gly(N-(3-F-4-Me-benzyl)))W-NH2)
17 | < 10 nM | Cc1ccc(CNCC(=O)N2CCC(NC(=O)[C@H](CC(C)C)NC(=O)NNC(=O)[C@H](CC3CCCCC3)NC(=O)[C@@H](NC(=O)[C@H](CC(N)=O)NC(=O)[C@@H](Cc3ccncc3)NC(=O)[C@@H](Cc3ccc(O)cc3)NC(=O)CCCCCNC(=O)CN3CCN(CC(=O)O)CCN(CC(=O)O)CCN(CC(=O)O)CC3)[C@@H](C)O)(C(=O)N[C@@H](Cc3c[nH]c4ccccc34)C(N)=O)CC2)cc1F [Compound 316] ({DOTA-Ahx}-[dY][d4Pal]NT[Cha][azaGly]L[Api](Gly(N-(3-F-4-Me-benzyl)))W-NH2)
18 | < 10 nM | CC(C)C[C@H](NC(=O)NNC(=O)[C@H](CC1CCCCC1)NC(=O)[C@@H](NC(=O)[C@H](CC(N)=O)NC(=O)[C@@H](Cc1ccc2ccccc2c1)NC(=O)[C@@H](Cc1ccc(O)cc1)NC(=O)CCCCCNC(=O)CN1CCN(CC(=O)O)CCN(CC(=O)O)CCN(CC(=O)O)CC1)[C@@H](C)O)C(=O)NC1(C(=O)N[C@@H](Cc2c[nH]c3ccccc23)C(N)=O)CCN(C(=N)N)CC1 [Compound 317] ({DOTA-Ahx}-[dY][d2Nal]NT[Cha][azaGly]L[Api(1-amidino)]W-NH2)
